Patent US6780633B2, “Methods for producing optically active amino acids” (Sumitomo Chemical Company, Limited, priority 1999, dated 2004)

Columns and labels:
Format in all cases: cell-based
[1] = tested on: Streptomyces roseus IFO12818; assay: effect of aminotransferase inhibitor on production of L-p-chlorophenylalanine from D-form by cells, at equilibrium; conditions: inhibitor final 1 mM; 30° C., 24 hours (reaction equilibrated); absence of inhibitor = 100%
Method: (§1) A 500 mL Sakaguchi flask containing 100 ml of a sterilized medium (pH 7.0) containing 1.0% (w/v) glycerol, 0.2% (w/v) polypeptone (Nihon Pharmaceutical Co., Ltd.), 0.3% (w/v) meat extract (Kyokuto Pharmaceutical Ind., Co., Ltd.), 0.3% (w/v) yeast extract (Difco), 0.1% (w/v) dipotassium phosphate, 0.1% (w/v) potassium mono phosphate, 0.03% (w/v) magnesium sulfate heptahydrate was inoculated with 1 mL of a culture of Nocardia diaphanozonaria strain JCM3208 which had previously been cultivated in a medium of the similar composition, and incubated at 30° C. for 2 days with a reciprocal shaking. 80 ml of this culture was subjected to centrifugation (10000 g, 10 minutes) to collect wet cells. The collected wet cells were washed twice with 80 ml of 100 mM potassium phosphate buffer (pH 7.0) and the wet cells thus obtained was suspended in 4 mL of 100 mM potassium phosphate buffer (pH 7.0) to obtain a cell suspension.
(§2) 0.2 ml of the cell suspension was combined with 1.8 mL of 100 mM potassium phosphate buffer (pH7.0) containing D-p-chlorophenylalanine at 5.5 mM and an aminotransferase inhibitor shown in Table 6 at 1.1 mM, and incubated at 30° C. for 2 hours with a reciprocal shaking at 250 rpm. Each reaction mixture was analyzed at an early stage of the reaction by HPLC to quantify L-p-chlorophenylalanine produced by the reaction. The results are represented as the relative values each based on 100% production of L-p-chlorophenylalanine in the absence of the respective aminotransferase inhibitor.
(§3) The reaction was performed similarly as in Example 6 except for using each of the microorganisms shown in Table 8 instead of Nocardia diaphanozonaria strain JCM3208 and except that the reaction time was 24 hours (when the reaction was equilibrated).

[2] = tested on: Pseudomonas oxalaticus IFO13593; assay: as above; conditions: inhibitor final 1 mM; 30° C., 24 hours (reaction equilibrated); absence of inhibitor = 100%
Method: as §1, §2, §3

[3] = tested on: Arthrobacter pascens IFO12139; assay: as above; conditions: inhibitor final 1 mM; 30° C., 24 hours (reaction equilibrated); absence of inhibitor = 100%
Method: as §1, §2, §3

[4] = tested on: Saccharopolyspora hirsuta JCM9109; assay: as above; conditions: inhibitor final 1 mM; 30° C., 24 hours (reaction equilibrated); absence of inhibitor = 100%
Method: as §1, §2, §3

[5] = tested on: Flavimonas oryzihabitans JCM2952; assay: effect of aminotransferase inhibitor on production of L-p-chlorophenylalanine from D-form by cells; conditions: inhibitor final 1 mM; 30° C., 2 hours; absence of inhibitor = 100%
Method: as §1, §2
(§4) The reaction was performed similarly as in Example 6 except for using each of the microorganisms shown in Table 7 instead of Nocardia diaphanozonaria strain JCM3208.

[6] = tested on: Pseudomonas chlororaphis IFO3521; assay: as above; conditions: inhibitor final 1 mM; 30° C., 2 hours; absence of inhibitor = 100%
Method: as §1, §2, §4

[7] = tested on: Rhizobium meliloti IFO14782; assay: as above; conditions: inhibitor final 1 mM; 30° C., 2 hours; absence of inhibitor = 100%
Method: as §1, §2, §4

[8] = tested on: Pseudomonas oleovorans IFO13583; assay: as above; conditions: inhibitor final 1 mM; 30° C., 2 hours; absence of inhibitor = 100%
Method: as §1, §2, §4

[9] = tested on: Pseudomonas taetrolens IFO3460; assay: as above; conditions: inhibitor final 1 mM; 30° C., 2 hours; absence of inhibitor = 100%
Method: as §1, §2, §4

[10] = tested on: Klebsiella planticola JCM7251; assay: as above; conditions: inhibitor final 1 mM; 30° C., 2 hours; absence of inhibitor = 100%
Method: as §1, §2, §4

[11] = tested on: Nocardia diaphanozonaria strain JCM3208; assay: as above; conditions: inhibitor final concentration 1 mM; D-p-chlorophenylalanine 5.5 mM; 30° C., 2 hours (early stage); absence of inhibitor = 100%
Method: as §1, §2

SMILES | Relative value (%) of production of L-p-chlorophenylalanine [1] | Relative value (%) of production of L-p-chlorophenylalanine [2] | Relative value (%) of production of L-p-chlorophenylalanine [3] | Relative value (%) of production of L-p-chlorophenylalanine [4] | Relative value (%) of production of L-p-chlorophenylalanine [5] | Relative value (%) of production of L-p-chlorophenylalanine [6] | Relative value (%) of production of L-p-chlorophenylalanine [7] | Relative value (%) of production of L-p-chlorophenylalanine [8] | Relative value (%) of production of L-p-chlorophenylalanine [9] | Relative value (%) of production of L-p-chlorophenylalanine [10] | Relative value (%) of production of L-p-chlorophenylalanine [11]
NC1C=CC=C(C(=O)O)C1 (racemic) [DL-Gabaculine] | 97% | 105% | 96% | 97% | 105% | 72% | 88% | 87% | 75% | 102% | 92%
N[C@H](CCl)C(=O)O [β-Chloro-D-alanine] | 114% | 124% | 83% | 99% | 144% | 85% | 108% | 91% | 84% | 90% | 108%
N[C@@H](CCl)C(=O)O [β-Chloro-L-alanine] | 95% | 91% | 84% | 101% | 92% | 102% | 96% | 94% | 87% | 92% | 121%
